Laboratory results as given in patent US10227324B2 (Shanghai Haiyan Pharmaceutical Technology Co., Ltd., priority 2014, dated 2019).
Read-outs that look alike come from different tables or passages of the source.

Assays:
[1] = target: T1, PI3K-δ kinase (p110δ/p85α) (Homo sapiens, UniProt O00329); assay: Determination of PI3K kinase activity (ADP Transcreener, fluorescence polarization); format: biochemical; conditions: Table 1; ATP 10 μM; read-out: PI3K-δ/nM (IC50 of inhibitory activity against PI3K kinase)
T1 construct: purchased Millipore 14-604M

[2] = target: T2, PI3K-β kinase (p110β/p85α) (Homo sapiens, UniProt P42338); assay: as above; format: biochemical; conditions: Table 1; ATP 10 μM; read-out: PI3K-β/nM (IC50 of inhibitory activity against PI3K kinase)
T2 construct: purchased Millipore 14-603

[3] = target: T3, PI3K-α kinase (p110α/p85α) (Homo sapiens, UniProt P42336); assay: as above; format: biochemical; conditions: for IC50: ATP 10 μM
T3 construct: purchased Invitrogen PV4788

PI3K-γ kinase (p110γ) = target: T4, PI3K-γ kinase (p110γ) (Homo sapiens, UniProt P48736); assay: as above; format: biochemical; conditions: Table 1; ATP 10 μM; read-out: PI3K-γ/nM (IC50 of inhibitory activity against PI3K kinase)
T4 construct: purchased Invitrogen PV4786
How it was run: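 Each 25 μL reaction held PI3K enzyme (p110α/p85α 3 ng, p110β/p85α 60 ng, p110δ/p85α 90 ng, or p110γ 100 ng), 10 μM ATP, 30 μM PIP2:PS and 2% DMSO, incubated 1 h at 25 °C. Compounds were tested in duplicate across a 3-fold series, 0.00046–1 μM as prepared. ADP was detected by Transcreener fluorescence polarization, quantified against an ADP/ATP standard curve, and IC50 fitted.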

MCF-7 cells = assay: Cell inhibitory activity detected by MTT assay, MCF-7; format: cell-based; conditions: Homo sapiens, MCF7, 72 h, read-out: MCF-7 cell (IC50/nM), cell growth inhibition
How it was run: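 MCF-7 cells in DMEM + 10% FBS were treated after adherence with compounds at 8 concentrations (0.0046–10 μM) for 72 h at 37 °C, 5% CO2.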

[4] = Table 1, read-out: PI3K-α/nM (IC50 of inhibitory activity against PI3K kinase)
[5] = Table 2, read-out: PI3K-α/nM (IC50 of inhibitory activity against PI3K-α kinase)

T4 sequence (P48736 whole entry): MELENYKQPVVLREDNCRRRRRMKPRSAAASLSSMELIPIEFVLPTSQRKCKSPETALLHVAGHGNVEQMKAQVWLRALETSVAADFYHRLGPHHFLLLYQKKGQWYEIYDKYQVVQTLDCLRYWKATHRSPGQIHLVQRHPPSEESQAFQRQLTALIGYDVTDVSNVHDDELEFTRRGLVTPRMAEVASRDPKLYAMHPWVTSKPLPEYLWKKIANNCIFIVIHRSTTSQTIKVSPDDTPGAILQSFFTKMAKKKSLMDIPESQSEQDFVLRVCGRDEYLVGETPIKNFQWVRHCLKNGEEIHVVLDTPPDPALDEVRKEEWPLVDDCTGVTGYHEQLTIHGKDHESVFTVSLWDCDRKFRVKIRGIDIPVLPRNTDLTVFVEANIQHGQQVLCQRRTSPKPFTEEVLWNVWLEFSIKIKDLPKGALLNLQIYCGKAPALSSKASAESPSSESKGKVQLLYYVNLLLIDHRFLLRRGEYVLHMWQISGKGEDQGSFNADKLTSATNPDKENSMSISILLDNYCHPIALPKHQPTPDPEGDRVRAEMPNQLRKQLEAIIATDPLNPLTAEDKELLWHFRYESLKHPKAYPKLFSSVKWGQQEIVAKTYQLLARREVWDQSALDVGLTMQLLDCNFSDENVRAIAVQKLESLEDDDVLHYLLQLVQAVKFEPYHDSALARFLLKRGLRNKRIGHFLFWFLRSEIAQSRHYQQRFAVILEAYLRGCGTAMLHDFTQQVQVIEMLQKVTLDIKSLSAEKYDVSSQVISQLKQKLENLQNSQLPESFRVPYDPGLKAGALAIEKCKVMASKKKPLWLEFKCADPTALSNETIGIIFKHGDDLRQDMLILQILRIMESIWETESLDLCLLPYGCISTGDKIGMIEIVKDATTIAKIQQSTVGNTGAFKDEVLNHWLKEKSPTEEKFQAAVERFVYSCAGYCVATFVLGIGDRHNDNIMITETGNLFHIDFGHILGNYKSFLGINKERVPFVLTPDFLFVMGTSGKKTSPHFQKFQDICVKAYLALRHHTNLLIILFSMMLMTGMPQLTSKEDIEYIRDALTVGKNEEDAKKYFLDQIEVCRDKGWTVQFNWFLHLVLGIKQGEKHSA
T3 sequence (P42336 whole entry): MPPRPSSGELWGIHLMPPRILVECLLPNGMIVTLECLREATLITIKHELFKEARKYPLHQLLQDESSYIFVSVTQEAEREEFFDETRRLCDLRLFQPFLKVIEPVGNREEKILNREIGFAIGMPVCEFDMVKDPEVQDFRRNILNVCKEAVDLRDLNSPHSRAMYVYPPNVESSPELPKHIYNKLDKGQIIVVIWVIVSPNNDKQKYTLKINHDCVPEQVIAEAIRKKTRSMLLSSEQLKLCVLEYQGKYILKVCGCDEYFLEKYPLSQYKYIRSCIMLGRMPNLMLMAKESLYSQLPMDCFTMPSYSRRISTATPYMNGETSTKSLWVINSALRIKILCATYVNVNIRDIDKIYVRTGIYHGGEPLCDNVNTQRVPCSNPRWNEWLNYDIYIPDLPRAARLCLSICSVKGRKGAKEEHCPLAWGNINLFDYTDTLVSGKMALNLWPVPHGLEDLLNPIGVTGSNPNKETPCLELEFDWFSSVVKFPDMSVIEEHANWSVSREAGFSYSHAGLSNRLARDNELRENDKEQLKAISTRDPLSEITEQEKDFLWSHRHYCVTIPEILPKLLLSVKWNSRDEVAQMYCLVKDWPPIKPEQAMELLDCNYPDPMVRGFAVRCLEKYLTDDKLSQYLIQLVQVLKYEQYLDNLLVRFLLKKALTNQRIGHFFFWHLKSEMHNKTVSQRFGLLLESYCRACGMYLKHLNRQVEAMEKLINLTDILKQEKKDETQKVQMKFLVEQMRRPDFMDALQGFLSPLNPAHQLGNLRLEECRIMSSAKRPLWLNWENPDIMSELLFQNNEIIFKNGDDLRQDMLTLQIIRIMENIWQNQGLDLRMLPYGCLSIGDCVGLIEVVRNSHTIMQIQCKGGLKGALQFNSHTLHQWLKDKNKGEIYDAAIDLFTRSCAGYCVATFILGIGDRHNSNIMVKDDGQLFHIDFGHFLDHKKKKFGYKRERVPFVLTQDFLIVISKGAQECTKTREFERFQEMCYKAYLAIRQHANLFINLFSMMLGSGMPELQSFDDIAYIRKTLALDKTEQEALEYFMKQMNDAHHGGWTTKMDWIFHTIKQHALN
T3 sequence (P27986 whole entry partner): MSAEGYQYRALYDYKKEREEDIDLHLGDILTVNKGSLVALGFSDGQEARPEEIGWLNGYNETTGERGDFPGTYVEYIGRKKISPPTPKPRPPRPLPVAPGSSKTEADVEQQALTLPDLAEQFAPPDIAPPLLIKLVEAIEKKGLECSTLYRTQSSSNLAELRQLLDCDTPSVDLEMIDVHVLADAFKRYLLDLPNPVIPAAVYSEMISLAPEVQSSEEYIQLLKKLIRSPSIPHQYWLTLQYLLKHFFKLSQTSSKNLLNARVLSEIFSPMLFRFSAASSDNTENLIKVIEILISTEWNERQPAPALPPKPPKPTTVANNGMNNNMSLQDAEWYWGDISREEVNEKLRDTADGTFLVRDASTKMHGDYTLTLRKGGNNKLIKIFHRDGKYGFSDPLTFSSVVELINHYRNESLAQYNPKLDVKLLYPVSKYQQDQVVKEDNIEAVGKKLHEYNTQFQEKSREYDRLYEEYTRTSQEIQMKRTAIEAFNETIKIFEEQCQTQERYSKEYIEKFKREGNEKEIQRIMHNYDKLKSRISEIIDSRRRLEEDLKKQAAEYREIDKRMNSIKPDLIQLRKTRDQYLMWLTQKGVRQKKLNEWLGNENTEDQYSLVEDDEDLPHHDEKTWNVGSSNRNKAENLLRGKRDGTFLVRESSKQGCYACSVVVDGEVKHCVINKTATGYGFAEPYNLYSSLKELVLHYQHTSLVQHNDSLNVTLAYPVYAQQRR
T2 sequence (P42338 whole entry): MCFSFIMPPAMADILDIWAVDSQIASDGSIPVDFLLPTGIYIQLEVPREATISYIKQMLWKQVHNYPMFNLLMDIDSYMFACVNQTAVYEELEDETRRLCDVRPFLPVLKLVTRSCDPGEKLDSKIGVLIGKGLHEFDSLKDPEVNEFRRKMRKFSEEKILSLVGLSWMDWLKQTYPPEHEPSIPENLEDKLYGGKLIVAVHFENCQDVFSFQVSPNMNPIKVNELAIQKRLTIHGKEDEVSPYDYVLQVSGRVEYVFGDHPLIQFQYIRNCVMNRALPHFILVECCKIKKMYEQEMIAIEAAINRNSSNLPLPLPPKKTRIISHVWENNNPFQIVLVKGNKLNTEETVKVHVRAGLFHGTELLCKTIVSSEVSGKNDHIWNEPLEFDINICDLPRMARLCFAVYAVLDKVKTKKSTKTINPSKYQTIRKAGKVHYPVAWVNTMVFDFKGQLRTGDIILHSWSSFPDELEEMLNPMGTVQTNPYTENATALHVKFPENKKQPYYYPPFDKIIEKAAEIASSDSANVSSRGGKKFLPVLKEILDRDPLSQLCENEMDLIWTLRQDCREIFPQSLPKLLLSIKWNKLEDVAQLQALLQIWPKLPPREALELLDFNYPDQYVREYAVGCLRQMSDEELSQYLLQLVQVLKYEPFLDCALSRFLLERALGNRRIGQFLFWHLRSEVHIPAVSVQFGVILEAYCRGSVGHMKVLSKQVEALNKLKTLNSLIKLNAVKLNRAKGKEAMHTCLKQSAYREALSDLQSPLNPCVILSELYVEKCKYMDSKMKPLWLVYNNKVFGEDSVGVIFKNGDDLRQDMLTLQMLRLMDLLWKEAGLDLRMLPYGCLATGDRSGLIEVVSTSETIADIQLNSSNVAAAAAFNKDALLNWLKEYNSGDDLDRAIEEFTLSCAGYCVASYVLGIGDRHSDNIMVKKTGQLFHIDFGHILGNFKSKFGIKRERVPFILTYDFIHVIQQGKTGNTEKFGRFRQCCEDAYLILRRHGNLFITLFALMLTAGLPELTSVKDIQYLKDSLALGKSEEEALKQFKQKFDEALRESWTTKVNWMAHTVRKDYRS
T2 sequence (P27986 whole entry partner): as the sequence (P27986 whole entry partner) above
T1 sequence (O00329 whole entry): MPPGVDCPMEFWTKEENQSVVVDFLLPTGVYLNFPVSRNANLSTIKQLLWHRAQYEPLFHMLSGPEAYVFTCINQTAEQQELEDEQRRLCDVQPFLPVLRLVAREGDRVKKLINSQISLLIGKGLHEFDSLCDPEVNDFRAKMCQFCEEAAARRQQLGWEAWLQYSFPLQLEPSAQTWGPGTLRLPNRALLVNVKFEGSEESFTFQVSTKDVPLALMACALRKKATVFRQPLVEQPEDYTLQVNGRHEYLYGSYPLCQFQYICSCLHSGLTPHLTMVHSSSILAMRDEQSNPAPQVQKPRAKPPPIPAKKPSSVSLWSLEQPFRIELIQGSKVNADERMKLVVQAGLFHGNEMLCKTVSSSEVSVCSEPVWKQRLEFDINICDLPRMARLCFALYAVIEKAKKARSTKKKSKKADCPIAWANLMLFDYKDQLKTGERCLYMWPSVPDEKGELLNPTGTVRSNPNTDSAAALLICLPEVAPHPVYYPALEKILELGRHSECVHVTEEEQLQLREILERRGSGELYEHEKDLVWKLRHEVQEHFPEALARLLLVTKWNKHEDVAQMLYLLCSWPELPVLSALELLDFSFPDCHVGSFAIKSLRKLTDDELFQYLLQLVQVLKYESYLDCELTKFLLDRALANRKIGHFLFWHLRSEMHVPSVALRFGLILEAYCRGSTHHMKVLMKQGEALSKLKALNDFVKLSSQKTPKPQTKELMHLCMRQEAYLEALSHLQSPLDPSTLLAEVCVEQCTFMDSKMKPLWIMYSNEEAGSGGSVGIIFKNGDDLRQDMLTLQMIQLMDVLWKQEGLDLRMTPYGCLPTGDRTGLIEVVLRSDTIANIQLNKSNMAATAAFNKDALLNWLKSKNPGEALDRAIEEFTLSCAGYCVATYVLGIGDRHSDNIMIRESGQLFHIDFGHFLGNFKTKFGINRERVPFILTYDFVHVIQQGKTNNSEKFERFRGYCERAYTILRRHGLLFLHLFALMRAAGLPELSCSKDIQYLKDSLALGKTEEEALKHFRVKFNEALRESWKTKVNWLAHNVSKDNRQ
T1 sequence (P27986 whole entry partner): as the sequence (P27986 whole entry partner) above

| SMILES | IC50 [1] [nM] | IC50 [2] [nM] | IC50 [3, 4] [nM] | IC50 (PI3K-γ kinase (p110γ)) [nM] | IC50 (MCF-7 cells) [nM] | increase of inhibitory activity against PI3K-α kinase compared with BKM-120 ([3]; relative to BKM-120) | IC50 [3, 5] [nM] |
| --- | --- | --- | --- | --- | --- | --- | --- |
| CC(C)(c1cc(-c2cnc(N)cc2Cl)nc(N2CCOCC2)n1)S(C)(=O)=O [Compound S-38, 4-chloro-5-(6-(2-(methylsulfonyl)prop-2-yl)-2-morpholinopyrimidin-4-yl)pyridin-2-amine] | 212 | 113 | 17 | 369 | 180 | – | – |
| CS(=O)(=O)C(F)(F)c1cc(-c2cnc(N)cc2Cl)nc(N2CCOCC2)n1 [Compound S-54, 4-chloro-5-(6-(difluoro(methylsulfonyl)methyl)-2-morpholinopyrimidin-4-yl)pyridin-2-amine] | 145 | 92 | 12 | 199 | 159 | – | – |
| C[C@@H]1COCCN1c1nc(-c2cnc(N)cc2Cl)cc(C2(S(C)(=O)=O)CC2)n1 [Compound S-68] | 143 | 92 | 8 | 184 | 94 | – | 8 |
| COC(C)(C)c1cc(-c2cnc(N)cc2Cl)nc(N2CCOC[C@@H]2C)n1 [Compound S-75] | 810 | 943 | 23 | 654 | 131 | – | 23 |
| COC(C)(C)c1cc(-c2cnc(N)cc2Cl)nc(N2CCOCC2)n1 [Compound S-76] | 207 | 316 | 53 | 228 | 66 | – | 53 |
| CC(C)(c1cc(-c2cnc(N)cc2F)nc(N2CCOCC2)n1)S(C)(=O)=O [Compound S-81] | 178 | 812 | 43 | 181 | 104 | – | – |
| CCS(=O)(=O)C1(c2cc(-c3cnc(N)cc3F)nc(N3CCOCC3)n2)CC1 [Compound S-85] | 228 | 484 | 29 | 244 | 25 | – | 29 |
| CC(C)S(=O)(=O)C1(c2cc(-c3cnc(N)cc3F)nc(N3CCOCC3)n2)CC1 [Compound S-86] | 397 | 763 | 26 | 192 | 29 | – | 26 |
| Nc1cc(F)c(-c2cc(C3(S(=O)(=O)C4CC4)CC3)nc(N3CCOCC3)n2)cn1 [Compound S-88] | 209 | 521 | 48 | 98 | 102 | – | 48 |
| CS(=O)(=O)C1(c2cc(N3CCOCC3)nc(-c3cnc(N)cc3C(F)(F)F)n2)CC1 [reference compound] | 2580 | 2160 | 90 | > 3000 | 639 | – | – |

Compounds with a lower IC50 [1], results first:

| IC50 [1] [nM] | IC50 [2] [nM] | IC50 [3, 4] [nM] | IC50 (PI3K-γ kinase (p110γ)) [nM] | IC50 (MCF-7 cells) [nM] | increase of inhibitory activity against PI3K-α kinase compared with BKM-120 ([3]; relative to BKM-120) | IC50 [3, 5] [nM] | SMILES |
| --- | --- | --- | --- | --- | --- | --- | --- |
| 79 | 82 | 6 | 331 | 170 | – | – | C[C@H]1COCCN1c1nc(-c2cnc(N)cc2C(F)(F)F)cc(C(C)(C)S(C)(=O)=O)n1 [Compound S-41] |
| 17 | 28 | 35 | 78 | 329 | – | – | CC(C)(c1cc(-c2cnc(N)nc2C(F)(F)F)nc(N2CCOCC2)n1)S(C)(=O)=O [Compound S-45] |
| 13 | 8 | 6 | 96 | 301 | about 10 times | – | CS(=O)(=O)C1(c2cc(-c3cnc(N)nc3C(F)(F)F)nc(N3CCOCC3)n2)CC1 [Compound S-46] |
| 85 | 327 | 17 | 2020 | 187 | – | – | CCS(=O)(=O)C1(c2cc(-c3cnc(N)cc3C(F)(F)F)nc(N3CCOCC3)n2)CCC1 [Compound S-49, 5-(6-(1-(ethylsulfonyl)cyclobutyl)-2-morpholinopyrimidin-4-yl)-4-(trifluoromethyl)pyridin-2-amine] |
| 33 | 72 | 4 | 121 | 184 | – | – | Nc1cc(C(F)(F)F)c(-c2cc(C3(S(=O)(=O)c4ccccc4F)CC3)nc(N3CCOCC3)n2)cn1 [Compound S-58] |
| 46 | 73 | 9 | 160 | 212 | – | 9 | Nc1cc(Cl)c(-c2cc(C3(S(=O)(=O)c4ccccc4F)CC3)nc(N3CCOCC3)n2)cn1 [Compound S-66] |
| 59 | 208 | 6 | 113 | 105 | – | 6 | C[C@@H]1COCCN1c1nc(-c2cnc(N)cc2Cl)cc(C(C)(C)S(C)(=O)=O)n1 [Compound S-67] |
| 132 | 86 | 39 | 116 | 27 | – | – | CS(=O)(=O)C1(c2cc(-c3cnc(N)cc3F)nc(N3CCOCC3)n2)CC1 [Compound S-82] |
| 18 | 812 | 21 | 219 | 15 | – | – | C[C@H]1COCCN1c1nc(-c2cnc(N)cc2F)cc(C(C)(C)S(C)(=O)=O)n1 [Compound S-84] |
